The nature of data set [1]: Fluorescence emission in glycerol and methanol (Test Example 1). The data set is classed as physicochemical. The conditions noted are these: for Fluorescence intensity ratio in glycerol and methanol: 1×10^−5 M in glycerol vs methanol, maximum excitation wavelength; for Emission wavelength: 1×10^−5 M, excited at maximum excitation wavelength of each dye. On the procedure:
The fluorescent dye (molecular rotors) prepared in Examples dye1-dye42 were dissolved in DMSO each to prepare a mother solution with a concentration of 1×10^−2 M, and each mother solution was added to glycerol and methanol respectively and was mixed well, and a solution with a final concentration of 1×10^−5 M was prepared.

A short description of data set [2]: Background fluorescence in PBS (Test Example 4). It counts as physicochemical. Particulars: 1×10^−5 M, relative to contrast dyes of the same group (dye48, dye49, dye50, dye47). On the procedure: The dye1 and dye48; dye22 and dye49; dye40 and dye50; dye9, dye10 and dye47 were added to PBS to prepare a solution with a final concentration of 1×10^−5 M, corresponding maximum excitation wavelengths were used for exciting the dyes so that their fluorescence intensities in PBS could be detected, and normalization was performed with the strongest fluorescence intensity in each group of samples as 100, as shown respectively in FIGS. 21, 22, 23 and 24.

Data set [3] has as its system RNA aptamer in stable cell line (293T/17). Put plainly: Confocal imaging of cells expressing RNA aptamer (Test Example 5). It counts as cell-based. Particulars: 2 uM dye, 10 min incubation, confocal microscopy; cells not expressing aptamers do not fluoresce. How it is done: Stable cell line (293T/17) continuously expressing RNA aptamer ([…]) and control cells (293T/17) were used, and cell culture media of dye1, dye12, dye25, and dye41 with a final concentration of 2 uM substituted original cell culture media after the cell line and control cells grew to a cell confluence of 90% under the conventional mammalian cell culture condition (37° C., 5% carbon dioxide, 100% relative humidity), and were incubated for 10 min (37° C., 5% carbon dioxide, 100% relative humidity).

The test system is the same in data set [4]. Description: Flow detection of cells expressing RNA aptamer (Test Example 6). The data set is classed as cell-based. Particulars: 1 μM dye in PBS, 5 minutes.
Data set [5] is described as follows: Emission spectra in glycerol, wavelength adjustment (Test Example 3). It counts as physicochemical. The conditions noted are these: 1×10^−5 M. On the procedure: The dye5, dye6, dye11, dye12, dye13, dye14, dye39 and dye42 were added into glycerol to prepare a solution with a final concentration of 1×10^−5 M, fluorescent dyes were excited with corresponding maximum excitation wavelength so as to obtain the emission spectra, and some of the emission spectra were normalized.

Data set [6] is described as follows: Fluorescence emission in glycerol-diethanol mixed solutions of different viscosities (Test Example 2). The conditions noted are these: glycerol-diethanol mixed solution, 16.4-946.0 cp, 1×10^−5 M. The data set is classed as physicochemical. An excerpt:
The dye7, dye9, dye12, dye25, dye40 were respectively added into a glycerol-diethanol mixed solution with the following viscosities: 16.4 cp (the volume ratio of glycerol was 0%), 29.8 cp (the volume ratio of glycerol was 20%), 64.5 cp (the volume ratio of glycerol was 40%), 143.5 cp (the volume ratio of glycerol was 60%), 377.0 cp (the volume ratio of glycerol was 80%), 946.0 cp (the volume ratio of glycerol was 100%), so as to prepare solutions with a final concentration of 1×10^−5 M; the fluorescence emission spectra under different viscosity conditions were shown as FIGS. 1, 3, 5, 7 and 9, wherein the emission wavelengths of the above-mentioned molecular rotors were respectively 620 nm, 576 nm, 650 nm, 670 nm and 720 nm. According to the results, fluorescence intensities of fluorescent dyes of the same concentration increase with ambient viscosity.

Data set [7] can be described thus: Fluorescence in solvents with different polarities (Test Example 2). The data set is classed as physicochemical. The conditions noted are these: methylbenzene, ethyl acetate, methyl alcohol, acetonitrile, dimethyl sulfoxide.

The structures appear in SMILES notation.

In the case of `CN1C(=O)S/C(=C\c2ccc(N(C)CCO)s2)C1=O` [dye1], in data set [1], the “Fluorescence intensity ratio in glycerol and methanol” value (from here on “Fluorescence intensity ratio”) was found to be 695; the Emission wavelength worked out at 520 nm. Also, in data set [2], the “background fluorescence in PBS” value is reported as “lower background fluorescence”. Besides, the “fluorescence of cells expressing aptamers” value in data set [3] is listed as “bright fluorescence”.

Regarding `CN1CCOc2cc(/C=C3\NC(=S)NC3=O)ccc21` [dye3], in data set [1], the “Fluorescence intensity ratio” value is reported as 637; the Emission wavelength was 580 nm. Besides, in data set [4], the “dye background fluorescence before binding” value is listed as “very low” and the “fluorescence after binding to RNA aptamer in cells” value (“fluorescence after binding” for short) is reported as “notably activated”.

In the case of `CN1CCSc2cc(/C=C3\SC(=S)NC3=O)ccc21` [dye6], in data set [1], the “Fluorescence intensity ratio” value was found to be 658; the Emission wavelength amounted to 608 nm. In addition, in data set [5] (dye6 vs dye5, oxo-carbonyl turned into thiocarbonyl), the “increase of emission wavelength” value is listed as “about 50 nm”.

Take `CC1=CC(C)(C)N(C)c2ccc(/C=C3\SC(=O)NC3=S)cc21` [dye7]: in data set [1], the “Fluorescence intensity ratio” value came out at 754; the Emission wavelength is 620 nm. Moreover, in data set [6], the Emission wavelength came to 620 nm and the “viscosity response of fluorescence intensity” value (from here on “viscosity response”) was “sensitive to viscosity”. Also, the “fluorescence intensity in solvents with different polarities” value in data set [7] is “weak”.

Consider `O=C1NC(=S)N/C1=C\c1cc2c3c(c1)CCCN3CCC2` [dye9], for which, in data set [1], the “Fluorescence intensity ratio” value is given as 951; the Emission wavelength was 586 nm. In data set [6], the Emission wavelength amounted to 576 nm and the “viscosity response” value is reported as “sensitive to viscosity”. For the same compound, the “fluorescence intensity in solvents with different polarities” value in data set [7] is given as “weak”. The “background fluorescence in PBS” value in data set [2] is on record as “lower background fluorescence”.

For `S=C1NC(=S)/C(=C/c2cc3c4c(c2)CCCN4CCC3)S1` [dye10], in data set [1], the “Fluorescence intensity ratio” value is 638; the Emission wavelength was found to be 675 nm. For the same compound, the “background fluorescence in PBS” value in data set [2] is “lower background fluorescence”.

In the case of `CN(CCO)c1cc2sc(/C=C3\SC(=S)NC3=O)cc2s1` [dye12], in data set [1], the “Fluorescence intensity ratio” value came out at 654; the Emission wavelength was 650 nm. In addition, in data set [6], the Emission wavelength was 650 nm and the “viscosity response” value is “sensitive to viscosity”. In data set [7], the “fluorescence intensity in solvents with different polarities” value was “weak”. Further, in data set [3], the “fluorescence of cells expressing aptamers” value is given as “bright fluorescence”.

For the compound `CN(CCO)c1cc2sc(/C=C3\NC(=S)NC3=O)cc2s1` [dye13], in data set [1], the “Fluorescence intensity ratio” value came out at 874; the Emission wavelength worked out at 630 nm. In addition, the “shortening of emission wavelength” value in data set [5] (dye13 vs dye12, ring sulfur turned into nitrogen) was 20 nm. Besides, in data set [4], the “dye background fluorescence before binding” value is recorded as “very low” and the “fluorescence after binding” value is reported as “notably activated”.

As to `O=C1NC(=S)N/C1=C\c1cc2sc(N(CCO)CCO)cc2s1` [dye21], in data set [1], the “Fluorescence intensity ratio” value worked out at 1098; the Emission wavelength turned out to be 635 nm. Also, in data set [4], the “dye background fluorescence before binding” value is recorded as “very low” and the “fluorescence after binding” value is listed as “notably activated”.

In the case of `CN(CCO)c1ccc2cc(/C=C3\SC(=S)NC3=O)sc2c1` [dye22], in data set [1], the “Fluorescence intensity ratio” value turned out to be 687; the Emission wavelength worked out at 605 nm. In data set [2], the “background fluorescence in PBS” value was “lower background fluorescence”.

Consider `CN(CCO)c1ccc2c(c1)C(C)(C)c1cc(/C=C3\SC(=O)NC3=O)ccc1-2` [dye34], for which, in data set [1], the “Fluorescence intensity ratio” value was determined as 630; the Emission wavelength came to 680 nm. Besides, in data set [4], the “dye background fluorescence before binding” value is on record as “very low” and the “fluorescence after binding” value is given as “notably activated”.

As to `CN(CCO)c1ccc2c(c1)sc1cc(/C=C3\SC(=S)NC3=O)sc12` [dye36], in data set [1], the “Fluorescence intensity ratio” value is 510; the Emission wavelength stood at 735 nm.

For the compound `CN(CCO)c1cc2c(s1)-c1sc(/C=C3\OC(=N)NC3=N)cc1[Si]2(C)C` [dye37], in data set [1], the “Fluorescence intensity ratio” value was found to be 620; the Emission wavelength came out at 720 nm.

Consider `CN(CCO)c1cc2cc3sc(/C=C4\OC(=S)NC4=S)cc3cc2s1` [dye38], for which, in data set [1], the “Fluorescence intensity ratio” value is given as 741; the Emission wavelength was 730 nm.

Turning to `CN(CCO)c1ccc2c(c1)C(C)(C)c1cc(/C=C3\SC(=S)NC3=S)sc1-2` [dye39], in data set [1], the “Fluorescence intensity ratio” value is given as 627; the Emission wavelength was 820 nm.

For the compound `CN1C(=S)N/C(=C\c2cc3c(s2)-c2ccc(N(C)CCO)cc2C3(C)C)C1=S` [dye40], in data set [1], the “Fluorescence intensity ratio” value is 695; the Emission wavelength stood at 730 nm. In data set [6], the Emission wavelength is reported as 720 nm and the “viscosity response” value is “sensitive to viscosity”. Also, in data set [7], the “fluorescence intensity in solvents with different polarities” value is “weak”. Besides, in data set [2], the “background fluorescence in PBS” value is reported as “lower background fluorescence”.

Take `CN(CCO)c1cc2c(s1)-c1sc(/C=C3\NC(=S)NC3=O)cc1C2(C)C` [dye41]: in data set [1], the “Fluorescence intensity ratio” value is recorded as 594; the Emission wavelength was 735 nm. For the same compound, the “fluorescence of cells expressing aptamers” value in data set [3] was “bright fluorescence”.

`CN(CCO)c1cc2c(s1)-c1sc(/C=C3\SC(=S)NC3=S)cc1C2(C)C` [dye42]: in data set [1], the “Fluorescence intensity ratio” value is listed as 364; the Emission wavelength was 800 nm.

`CN(CCO)c1ccc2c(c1)C(C)(C)C(/C=C1\SC(=O)NC1=O)=N2` [dye44]: in data set [1], the “Fluorescence intensity ratio” value turned out to be 465; the Emission wavelength amounted to 680 nm.

For the compound `CN(CCO)c1ccc2c(c1)C(C)(C)C(/C=C1\SC(=S)NC1=O)=N2` [dye45], in data set [1], the “Fluorescence intensity ratio” value came out at 562; the Emission wavelength worked out at 717 nm.

Take `CN(C)c1ccc(C2=C(C#N)C(=C(C#N)C#N)OC2(C)C)cc1` [dye50, reference compound]: the “dye background fluorescence before binding” value in data set [4] is listed as “obvious”.

Source of the values: US20240352309A1, “FLUORESCENT DYE, AND PREPARATION METHOD THEREFOR AND USE THEREOF” (FLUORESCENCE DIAGNOSIS (SHANGHAI) BIOTECH COMPANY LTD., priority 2021, published 2024).
